From patent publication US20150111896A1, “HEMATOPOIETIC PROTECTION AGAINST CHEMOTHERAPEUTIC COMPOUNDS USING SELECTIVE CYCLIN-DEPENDENT KINASE 4/6 INHIBITORS” (The University of North Carolina at Chapel Hill, priority 2008, published 2015)
Entries after “also recorded” stand apart in the source; their conditions may differ. Read-outs that look alike come from different tables or passages of the source.

How the values were obtained:
[1] = system: human RB-null melanoma cells (A2058); assay: Cell proliferation assay (WST-1 or CellTiter-Glo) after chemotherapeutic; settings: for protection from chemotherapy-induced cytotoxicity (cell proliferation assays): A2058 (CDK4/6-independent), pretreatment prior to carboplatin, etoposide or doxorubicin
Description: (§7) In some embodiments, cell viability is assessed by performing a assay using 2-(4-iodophenyl)-3-(4-nitrophenyl)-5-(2,4-disulfophenyl)-2H-tetrazolium monosodium salt (WST-1), such as described further hereinbelow. In the WST-1 assay, WST-1 is cleaved by a mitochondrial reductase present in viable cells to form a colored product (i.e., formazan) that can be detected by measuring absorbance at a particular wavelength (e.g., 420-480 nm). […] The CellTiter-Glo® assay (CTG assay; Promega, Madison, Wis., United States of America) measures cell viability by measuring ATP concentration in cell lysate.
(§8) Cell lines: Telomerized human diploid fibroblast (tHDF) cells (HS68) were cultured in Dulbecco's Modified Eagle Medium (DMEM) +10% fetal bovine serum (FBS) with any additional compounds. The same conditions were used for A2058 and WM2664, human melanoma cell lines with known RB-pathway mutations: A2058 is RB-null, whereas WM2664 lacks INK4a/ARF. Thus, A2058 cells are CDK4/6-independent, while WM2664 cells are CDK4/6-dependent. Cells were cultured in DMEM+10% FBS.
(§9) Cell proliferation assays: Cell proliferation assays were performed by seeding 1×10^3 cells per well in a 96-well tissue culture plate in 100 μL of growth medium. Cells were treated as indicated with compound from Table 1 and doxorubicin, etoposide or carboplatin. Following treatment, cells were allowed to recover for 7 days in normal growth medium. At the end of the recovery period, cell number was quantified using the VVST-1 cell proliferation assay (TaKaRa Bio USA, Madison, Wis., United States of America) or the CellTiter-Glo® assay (CTG; Promega, Madison, Wis., United States of America). Data is presented as absorbance at 450 nm for the WST assays or Relative Light Units (RLU) for the CTG assays.

[2] = system: telomerized human diploid fibroblast (tHDF) cells (HS68); assay: as above; settings: for chemoprotective effects against doxorubicin, carboplatin, etoposide (cell viability, CellTiter-Glo): 16 hour pretreatment, DOX 122 nM, Carbo 50 μM or Etop 2.5 μM 8 hours
Description: as §7, §8, §9

[3] = system: human melanoma cells lacking INK4a/ARF (WM2664); assay: as above; settings: for protection from chemotherapy-induced cytotoxicity (cell proliferation assays): WM2664 (CDK4/6-dependent), pretreatment prior to carboplatin, etoposide or doxorubicin
Description: as §7, §8, §9

[4] = system: telomerized human diploid fibroblast (tHDF) cells (HS68); assay: Cell cycle analysis (BrdU and propidium iodide, flow cytometry); assay type: cell-based; settings: HS68 (CDK4/6-dependent), 24 hours treatment
Description: (§1) Cells were cultured in DMEM+10% FBS.
(§2) Cell cycle analysis: Cell cycle analysis was performed using BrdU and propidium iodide (both from BD Biosciences Pharmigen, San Jose, Calif., United States of America) following the manufacturer's protocol. Cells were treated for 24 hours with a test compound at a desired dose prior to 15 minutes BrdU pulse, cell harvesting, fixation, staining, and analysis by flow cytometry.
(§3) Histograms of dose-response curves of PD332991 and 2BrIC in HS68, WM2664 and A2058 cells were analyzed using Mod-Fit™ software from Verity Software House (Topsham, Me., United States of America).

[5] = system: human RB-null melanoma cells (A2058); assay: as above; assay type: cell-based; settings: A2058 (RB-null, CDK4/6-independent), 24 hours treatment
Description: as §1, §2, §3

[6] = system: human melanoma cells lacking INK4a/ARF (WM2664); assay: as above; assay type: cell-based; settings: WM2664 (CDK4/6-dependent), 24 hours treatment
Description: as §1, §2, §3

[7] = system: telomerized human diploid fibroblast (tHDF) cells (HS68)
Description: as §7, §8, §9

[8] = system: mice exposed to chemotherapeutic agents; assay: Myelosuppression assay: weekly complete blood counts; assay type: in vivo; settings: 150 mg/kg oral gavage, Carbo 100 mg/kg i.p., blood on sixth day
Description: PD0332991: In the carboplatin experiments, mice were treated with a single dose of PD0332991 150 mg/kg oral gavage or vehicle control followed by carboplatin 100 mg/kg IP injection. In the doxorubicin experiments, mice were treated with a PD0332991 150 mg/kg by oral gavage or vehicle control one hour before doxorubicin 10 mg/kg by IP injection on day 0 and then repeated on day 7.
2BrIC: Mice were treated with a single dose of carboplatin 100 mg/kg by IP injection and two doses of 2BrIC 150mg/kg oral gavage or vehicle control. Mice were pretreated with 2BrIC two hours prior to carboplatin administration and then readministered a second dose of 2BrIC at the time of the carboplatin injection.
Baseline complete blood count (CBC) analysis were performed on a subset of mice prior to drug administration. Following drug administration (chemotherapy+/−indicated CDK4/6 inhibitor or control), mice were monitored weekly for the presence of myelosuppression by CBC analysis. CBC analysis was performed using BD Microtainer tubes with K2E (K2EDTA), 40 μL of blood was collected by tail vein nick. Blood was analyzed using a HESKA CBC-Diff Veterinary Hematology System. CBC analysis included measurement of white blood cells, lymphocytes, granulocytes, monocytes, hematocrit, red blood cells, hemoglobin, platelets, and other common hematological parameters.

[9] = system: hematopoietic stem and progenitor cells (HSPC); assay: In vivo pharmacodynamic assay (BrdU incorporation, Ki67) in bone marrow; parameters: species or system mice; settings: two doses 300 mg/kg oral gavage, 2 hours prior to and at BrdU injection; relative to formulation alone; 300 mg/kg
Description: PD0332991: For HSPC proliferation experiments, mice received daily oral gavage with PD0332991 150 mg/kg for 2 days with 1 mg BrdU intraperitoneal injection (i.p.) every 6 hours for 24 hours prior to sacrifice.
2BrIC: For HSPC proliferation experiments, mice were treated with two doses of 2-bromo-12,13-dihydro-5H-indolo[2,3-a]pyrrolo[3,4-c]carbazole-5,7(6H)-dione (2BrIC) 300 mg/kg oral gavage or vehicle control. 2BrIC was solubilized for oral gavage using formulation #6 from the Hot Rod formulation kit (Pharmatek, Inc., San Diego, Calif., United States of America). 2BrIC was administered 2 hours prior to BrdU administration and readministered at the time of the BrdU 1 mg i.p. injection. After BrdU+/−2BrIC treatment for the indicated times, the mice were sacrificed and bone marrow harvested for immunophenotyping, and BrdU analysis.
Bone marrow (BM) was harvested from femurs of mice, pooled, and centrifuged to purify bone marrow mononuclear cells (BM-MNCs). Cells were then incubated for 5 minutes in ACK buffer to lyse red blood cells. All antibodies were from BD Pharmingen (San Jose, Calif., United States of America) unless otherwise indicated. Purified BM-MNCs were incubated with mouse lineage mixture biotin conjugated antibody, followed by streptavidin-FITC. Cells were then stained with Sca-1-PE-Cy7 and c-kit-APC-alexa750 antibodies. Cell viability was assessed using LIVE/DEAD Aqua Dead Cell Stain Kit (Invitrogen Corporation, Carlsbad, Calif., United States of America). For BrdU incorporation assay, the cells were fixed, permeablized, and stained with an APC BrdU Flow Kit according to the manufacturer's instruction. In all experiments, PE-Cy7, FITC, APC-alexa750, and the Aqua Dead cell stain isotype controls were included as appropriate. Flow cytometric analysis was performed using a CyAn ADP (Dako, Glostrup, Denmark). For each sample, a minimum of 500,000 cells was analyzed and the data were analyzed using FlowJo software (Tree Star, Ashland, Oreg., United States of America).

[10] = system: telomerized human diploid fibroblast (tHDF) cells (HS68); assay: γH2AX assay (DNA damage, flow cytometry); assay type: cell-based; settings: 16 hours pretreatment, then 8 hours Carbo, Etop or Dox
Description: (§4) Reduction in DNA damage effected by the test compound or maintenance of cell viability effected by the test compound in cells treated with cytotoxic compounds can be assessed in any suitable manner. For example, DNA damage in cell populations can be assessed by performing a gamma-H2AX assay as described further herein below. Mammalian cells respond to agents that introduce DNA double-stranded breaks with the immediate and substantial phosphorylation of histone H2AX. Thus, detection of the phosphorylated H2AX, termed gamma-H2AX (γH2AX), using commercially available antibodies, can serve as a measure of DNA damage in cells.
as §1
(§5) γH2AX assay: For γH2AX assay, cells were treated with a dose response of PD332991 or 2BrIC for 24 hours. Cells were fixed, permeabilized, and stained with anti-γH2AX antibody as per γH2AX Flow Kit (Millipore, Billerica, Mass., United States of America). γH2AX levels were assessed by flow cytometry.

[11] = system: human RB-null melanoma cells (A2058); assay: γH2AX assay (DNA damage, flow cytometry); assay type: cell-based; settings: 16 hours pretreatment, then 8 hours Carbo, Etop or Dox
Description: as §4, §1, §5

[12] = system: human melanoma cells lacking INK4a/ARF (WM2664); assay: γH2AX assay (DNA damage, flow cytometry); assay type: cell-based; settings: 16 hours pretreatment; for protection from doxorubicin-, carboplatin- or etoposide-induced DNA damage (gamma-H2AX): then 8 hours Carbo, Etop or Dox
Description: as §4, §1, §5

HS68 cells = assay: TOXILIGHT assay (adenylate kinase release); assay type: cell-based, human; settings: pretreatment, then Carbo 50 μM, DOX 122 nM or Etop 2.5 μM 8 hours
Description: (§6) Cellular cytotoxicity was assessed using the TOXILIGHT™ Bioassay kit (Lonza, Basel, Switzerland) which measures cytolysis by quantifying the release of adenylate kinase into the culture media. […] 100 μL of TOXILIGHT™ reagent is added and incubated for 5 minutes and read in a luminometer at 1 second/well.

[13] = system: RB-null human melanoma cells (A2058); assay: TOXILIGHT assay (adenylate kinase release); assay type: cell-based; settings: 16 hours treatment, then Carbo 50 μM, DOX 122 nM or Etop 2.5 μM 8 hours
Description: as §6

[14] = system: human melanoma cells lacking INK4a/ARF (WM2664); assay: TOXILIGHT assay (adenylate kinase release); assay type: cell-based; settings: 16 hours treatment, then Carbo 50 μM, DOX 122 nM or Etop 2.5 μM 8 hours
Description: as §6

CCC(CO)Nc1nc(NCc2ccccc2)c2ncn(C(C)C)c2n1 (stereo not drawn) [Roscovitine]
protection from chemotherapy-induced cytotoxicity (cell proliferation assays) [1]: failed to protect
chemoprotective effects against doxorubicin (cell viability, CellTiter-Glo) ([1]; A2058, 16 hours pretreatment, DOX 370 nM 8 hours, viability after 7 days): absence of chemoprotective effects
chemoprotective effects against doxorubicin (cell viability, CellTiter-Glo) ([2]; HS68, 16 hours pretreatment, DOX 370 nM 8 hours, viability after 7 days): absence of chemoprotective effects
protection from chemotherapy-induced cytotoxicity (cell proliferation assays) [3]: failed to protect
chemoprotective effects against doxorubicin (cell viability, CellTiter-Glo) ([3]; WM2664, 16 hours pretreatment, DOX 122 nM 8 hours, viability after 7 days): absence of chemoprotective effects
cell cycle effect [4]: does not induce G1 arrest
cell cycle effect ([4]; listed as roscovitine): did not induce a clean G1 arrest
cell cycle effect [5]: did not induce a clean G1 arrest
cell cycle effect [6]: does not induce G1 arrest
cell cycle effect ([6]; listed as roscovitine): did not induce a clean G1 arrest
protection from chemotherapy-induced cytotoxicity (cell proliferation assays) [7]: failed to protect

O=C1NC(=O)c2c1c1c3ccccc3[nH]c1c1[nH]c3cc(Br)ccc3c21 [Compound 2BrIC, 2-bromo-12,13-dihydro-5H-indolo[2,3-a]pyrrolo[3,4]-carbazole-5,6-dione]
protection of blood cell counts from carboplatin [8]: provides protection of red blood cells and hemoglobin
protection from chemotherapy-induced cytotoxicity (cell proliferation assays) [1]: not
protection from doxorubicin-induced cytotoxicity (cell viability, WST-1 assay) ([1]; A2058, absorbance at 450 nm, 7 days recovery): inability
incorporation of BrdU into Lin−Kit+Sca1+ cells (MPP) [9]: inhibited; also recorded: clearly reducing proliferation
protection from chemotherapy-induced cytotoxicity (cell proliferation assays) ([2]; HS68 (CDK4/6-dependent), pretreatment prior to carboplatin, etoposide or doxorubicin): significant protection
protection from chemotherapy-induced cytotoxicity (cell proliferation assays) [3]: significant protection
cell cycle effect [4]: strong, clean and reversible G1-arrest
cell cycle effect [6]: strong, clean and reversible G1-arrest
protection from doxorubicin-, carboplatin- or etoposide-induced DNA damage (gamma-H2AX) [10]: attenuated γH2AX staining; also recorded: ability
protection from doxorubicin-, carboplatin- or etoposide-induced DNA damage (gamma-H2AX) [11]: inability
protection from doxorubicin-, carboplatin- or etoposide-induced DNA damage (gamma-H2AX) [12]: attenuated γH2AX staining
protection from carboplatin-induced DNA damage (gamma-H2AX positive cells) ([12]; then 8 hours carboplatin): ability
protection from doxorubicin-induced DNA damage (gamma-H2AX positive cells) ([12]; then 8 hours doxorubicin): ability
protection from etoposide-induced DNA damage (gamma-H2AX positive cells) ([12]; then 8 hours etoposide): ability

CN[C@@H]1C[C@H]2O[C@@](C)([C@@H]1OC)n1c3ccccc3c3c4c(c5c6ccccc6n2c5c31)C(=O)NC4 [staurosporine]
effect on chemotherapy-induced cytotoxicity (adenylate kinase release) (HS68 cells): enhances chemotherapy-induced cytotoxicity in a cyclin-dependent kinase 4/6 (CDK4/6)-independent manner
chemoprotective effects against doxorubicin, carboplatin, etoposide (cell viability, CellTiter-Glo) ([2]; HS68, viability after 7 days): does not provide protection
chemoprotective effects against doxorubicin, carboplatin, etoposide (cell viability, CellTiter-Glo) ([2]; HS68, viability after 7 days, listed as Staurosporine): does not appear to protect
cell cycle effect [4]: substantially pure G1 arrest
cell cycle effect ([4]; listed as Staurosporine): appears to induce G1 cell cycle arrest
protection from doxorubicin-, carboplatin- or etoposide-induced DNA damage (gamma-H2AX) [10]: does not protect
protection from doxorubicin-, carboplatin- or etoposide-induced DNA damage (gamma-H2AX) ([10]; listed as Staurosporine): does not appear to protect
protection from doxorubicin-, carboplatin- or etoposide-induced DNA damage (gamma-H2AX) [12]: does not protect
protection from doxorubicin-, carboplatin- or etoposide-induced DNA damage (gamma-H2AX) ([12]; listed as Staurosporine): does not appear to protect
effect on chemotherapy-induced cytotoxicity (adenylate kinase release) [13]: enhances chemotherapy-induced cytotoxicity in a cyclin-dependent kinase 4/6 (CDK4/6)-independent manner
effect on chemotherapy-induced cytotoxicity (adenylate kinase release) [14]: enhances chemotherapy-induced cytotoxicity in a cyclin-dependent kinase 4/6 (CDK4/6)-independent manner
